One may read the IC50 as the concentration needed to halve the response being measured. For orientation: EC50 means the concentration that produces a half-maximal response. The term CC50 denotes the concentration giving 50% cytotoxicity. Read a low CC50 as harm at low concentration.

Molecules are shown by their SMILES.

Series [1] in a line: Inhibition of RSV RdRp L/P measured after 120 mins by SPA. Also noted: species or system Respiratory syncytial virus.
Series [2] has as its system Respiratory syncytial virus. In words: Antiviral activity against RSV A2 expressing e-GFP infected in human HeLa cells incubated for 3 days by […]. Type of series: functional, organism-based. The note with it: 72 h. In general terms: In ATP-based viability assays light output follows the ATP content of the culture.
A short description of series [3]: Cytotoxicity against human HeLa cells incubated for 3 days by ATPlite analysis. Type of series: toxicity, cell-based. The note with it: time 3 day.
The nature of series [4]: Intrinsic clearance in human liver microsome at 1 uM preincubated for 5 mins followed by NADPH addition measured upto 60 mins by LC-MS/MS analysis. The note with it: liver microsomes, time 65 min, read-out: CLH. Type of series: ADME. A general note: Liver microsomes are a subcellular fraction often used to study metabolism.
The nature of series [5]: Intrinsic clearance in rat liver microsome at 1 uM preincubated for 5 mins followed by NADPH addition measured upto 60 mins by LC-MS/MS analysis. Type of series: ADME. The note with it: liver microsomes, time 65 min, read-out: CLH.
The nature of series [6]: Inhibition of RSV RdRp L/P. More on the design: species or system Respiratory syncytial virus.
Series [7] concerns Respiratory syncytial virus. In words: Antiviral activity against RSV. The note with it: human respiratory syncytial virus. Type of series: functional, organism-based.

`COc1cc(C(=O)NCC2(c3cc(C(C)(C)O)c(F)c(-c4ccc(F)cc4)n3)OCCC2=O)cc2cc(C)nnc12` (stereo unspecified) yielded a 50% inhibitory concentration (IC50) in series [1] of 0.1 nM. Further, the EC50 in series [2] was determined as 0.22 nM. In series [3], the cytotoxic concentration (CC50) at 72 h was > 5000 nM. Further, the microsomal CLint at 1 µM in series [4] was 110 µL/min/mg.
`COc1cc(-c2cn(CC(=O)c3cc(C(C)(C)O)c(F)c(-c4ccc(F)cc4)n3)nn2)cc2cccnc12`: it took 77 nM to reach half-maximal inhibition in series [1] (IC50). For the same compound, it took 200 nM to reach a half-maximal effect in series [2] (EC50). The CC50 at 72 h in series [3] is > 50000 nM. Also, the microsomal CLint at 1 µM in series [4] turned out to be 14.3 µL/min/mg; in series [5], 10.8 µL/min/mg.
Regarding `COc1cc(C(=O)NCC2(c3cc(C(C)(C)O)c(F)c(-c4ccc(F)cc4)n3)OCCC23CC3)cc2cc(C)nnc12` (stereo unspecified), the midpoint of inhibition in series [1], the IC50, lay at 0.55 nM. The EC50 in series [2] came out at 0.41 nM. In addition, the CC50 at 72 h in series [3] was > 5000 nM. The microsomal CLint at 1 µM in series [4] was > 347 µL/min/mg.
Regarding `COc1cc(C(=O)NCC(O)(c2cc(C(C)(C)O)c(F)c(-c3ccc(F)cc3)n2)C(F)(F)F)cc2cccnc12` (stereo unspecified), in series [1], the IC50 came out at 0.63 nM. The compound further came in with a concentration for a half-maximal effect (EC50) in series [2] of 11 nM. Further, half-maximal cytotoxicity in series [3] (CC50 at 72 h) was put at 16000 nM. Besides, the values for the microsomal CLint at 1 µM in series [4] and in series [5] were 12.1 µL/min/mg and 168 µL/min/mg, respectively.
`COc1cc(-c2cn(C[C@](O)(c3cc(C(C)(C)O)c(F)c(-c4ccc(F)cc4)n3)C(F)(F)F)nn2)cc2cccnc12` displayed a 50% inhibitory concentration (IC50) in series [1] of 16 nM. This compound registered an EC50 in series [2] of 74 nM. Besides, the CC50 at 72 h in series [3] worked out at 13000 nM. Moreover, the microsomal CLint at 1 µM in series [4] and in series [5] was < 7.7 µL/min/mg in each case.
In turn, `COc1cc(C(=O)NCC2(c3cc(C(C)(C)O)c(F)c(-c4ccc(F)cc4)n3)CC(=O)CO2)cc2cc(C)nnc12` (stereo unspecified) had an IC50 in series [1] of 2.5 nM. The midpoint of the response in series [2], the EC50, lay at 18 nM. In addition, the CC50 at 72 h in series [3] was > 5000 nM. In series [4], the microsomal CLint at 1 µM came to 126 µL/min/mg.
Taken in the same sequence, the figures for `COc1cc(C(=O)NCC2(c3cc(C(C)(C)O)c(F)c(-c4ccc(F)cc4)n3)CCCCO2)cc2cc(C)nnc12` (stereo unspecified) were 44 nM, 170 nM, > 25000 nM and > 347 µL/min/mg.
In series [1], `COc1cc(C(=O)NCC(=O)c2cc(C(C)(C)O)c(F)c(-c3ccc(F)cc3)n2)cc2cc(C)nnc12` gave a half-inhibitory concentration (IC50) of 3.4 nM. In addition, the midpoint of the response in series [2], the EC50, lay at 6.5 nM. This compound came in with a CC50 at 72 h in series [3] of 31000 nM. Besides, in series [4], the microsomal CLint at 1 µM worked out at 9.5 µL/min/mg.
Taken in the same sequence, the figures for `COc1cc(C(=O)NCC2(c3cc(C(C)(C)O)c(F)c(-c4ccc(F)cc4)n3)OCCC2O)cc2cc(C)nnc12` (stereo unspecified) were 1.9 nM, 0.13 nM, > 5000 nM and 18.4 µL/min/mg.
In the same order, the values of `COc1cc(C(=O)NCC2(c3cc(C(C)(C)O)c(F)c(-c4ccc(F)cc4)n3)OCCO2)cc2cc(C)nnc12` are 0.25 nM, 1.2 nM, > 50000 nM and 13.3 µL/min/mg.
The compound `COc1cc(-c2cn(CC3(c4cc(C(C)(C)O)c(F)c(-c5ccc(F)cc5)n4)CCO3)nn2)cc2cccnc12` (stereo unspecified) displayed an IC50 in series [1] of 4.1 nM. Further, the half-maximal effective concentration (EC50) in series [2] was 10 nM. Also, the half-maximal cytotoxic concentration (CC50) at 72 h in series [3] came to 23600 nM. Further, the microsomal CLint at 1 µM came out at 54.2 µL/min/mg in series [4] and 42.7 µL/min/mg in series [5].
Regarding `COc1cc(C(=O)NCC2(c3cc(C(C)(C)O)c(F)c(-c4ccc(F)cc4)n3)CC(O)CO2)cc2cc(C)nnc12` (stereo unspecified), the IC50 in series [1] was 1.9 nM. The compound also came in with a concentration giving a half-maximal response (EC50) in series [2] of 17 nM. Also, the cytotoxic concentration (CC50) at 72 h in series [3] was > 5000 nM. Also, in series [4], the microsomal CLint at 1 µM came to 14.6 µL/min/mg.
In series [1], `COc1cc(C(=O)NCC2(c3cc(C(C)(C)O)c(F)c(-c4ccc(F)cc4)n3)CC(F)(F)CO2)cc2cc(C)nnc12` (stereo unspecified) came in with an IC50 of 0.78 nM. Also, the response in series [2] was half-maximal at 2.3 nM (EC50). In series [3], the CC50 at 72 h is > 5000 nM. Also, the microsomal CLint at 1 µM in series [4] was 117 µL/min/mg.
Taken in the same sequence, the figures for `COc1cc(-c2cn(CC3(c4cc(C(C)(C)O)c(F)c(-c5ccc(F)cc5)n4)CCCO3)nn2)cc2cccnc12` (stereo unspecified) were 22 nM, 108 nM, > 5000 nM and > 347 µL/min/mg.
As for `COc1cc(C(=O)NC[C@](O)(c2cc(C(C)(C)O)c(F)c(-c3ccc(F)cc3)n2)C(F)(F)F)cc2cc(C)nnc12`, the IC50 in series [6] was determined as 0.29 nM. Further, a half-maximal effect in series [7] (EC50) was put at 0.38 nM.
In turn, `COc1cc(C(=O)NCC2(c3cc(C(C)(C)O)c(F)c(-c4ccc(F)cc4)n3)CCCO2)cc2cc(C)nnc12` (stereo unspecified) had a 50% inhibitory concentration (IC50) in series [1] of 0.8 nM. This compound also registered an EC50 in series [2] of 0.73 nM. For the same compound, the half-maximal cytotoxic concentration (CC50) at 72 h in series [3] came to 18000 nM. Moreover, in series [4], the microsomal CLint at 1 µM was > 20 µL/min/mg.

The record behind these values is ChEMBL document CHEMBL5614451, “Structure-Activity Relationship of Oxacyclo- and Triazolo-Containing Respiratory Syncytial Virus Polymerase Inhibitors” (ACS Med Chem Lett, 2024).
